Data taken from ChEMBL document CHEMBL5150071, “BAY-7081: A Potent, Selective, and Orally Bioavailable Cyanopyridone-Based PDE9A Inhibitor” (J Med Chem, 2022).
pIC50: −log10 of the molar value. ≈ marks a conversion by molar mass, not a printed value.

What was measured:
[1] = biological target: High affinity cGMP-specific 3',5'-cyclic phosphodiesterase 9A (Homo sapiens, UniProt O76083); assay: Inhibition of full length human PDE9A expressed in Sf9 insect cells using [3H]-cGMP as substrate incubated for 60 mins by microbeta scintillation counter analysis
Homo sapiens [2] = species: Homo sapiens; assay: Selectivity index, ratio of IC50 for full length human PDE2A to IC50 for full length human PDE9A
Homo sapiens [3] = species: Homo sapiens; assay: Selectivity index, ratio of IC50 for full length human PDE3B to IC50 for full length human PDE9A
Homo sapiens [4] = species: Homo sapiens; assay: Selectivity index, ratio of IC50 for human platelet PDE5A to IC50 for full length human PDE9A
Homo sapiens [5] = species: Homo sapiens; assay: Selectivity index, ratio of IC50 for full length human PDE7B to IC50 for full length human PDE9A
Homo sapiens [6] = species: Homo sapiens; assay: Selectivity index, ratio of IC50 for full length human PDE8A to IC50 for full length human PDE9A
Homo sapiens [7] = species: Homo sapiens; assay: Selectivity index, ratio of IC50 for full length human PDE10A to IC50 for full length human PDE9A
Homo sapiens [8] = species: Homo sapiens; assay: Selectivity index, ratio of IC50 for full length human PDE11A to IC50 for full length human PDE9A
[9] = Blood clearance in po or iv dosed Wistar rat measured over 24 hrs by LC-MS/MS analysis; format: ADME, organism-based; conditions: in vivo
Homo sapiens [10] = species: Homo sapiens; assay: Selectivity index, ratio of IC50 for full length human PDE4B to IC50 for full length human PDE9A
[11] = Drug metabolism in rat hepatocytes assessed as glucuronidation of cyclic lactam at 10 uM incubated for 4 hrs by LC-MS/MS analysis; format: ADME, cell-based, Hepatocyte
[12] = Drug metabolism in cryopreserved human hepatocytes assessed as glucuronidation of cyclic lactam at 10 uM incubated for 4 hrs by LC-MS/MS analysis; format: ADME, cell-based, Hepatocyte
[13] = Selectivity index, ratio of IC50 for bovine PDE6 to IC50 for full length human PDE11A
[14] = Selectivity index, ratio of IC50 for bovine brain PDE1 to IC50 for full length human PDE9A
[15] = Solubility of compound in PBS at pH 6.5 at 50 mg/ml incubated for 24 hrs by LC/MS/MS or HPLC analysis; format: physicochemical; conditions: buffer, pH 6.5, 24 h

Chain of High affinity cGMP-specific 3',5'-cyclic phosphodiesterase 9A (O76083 whole entry): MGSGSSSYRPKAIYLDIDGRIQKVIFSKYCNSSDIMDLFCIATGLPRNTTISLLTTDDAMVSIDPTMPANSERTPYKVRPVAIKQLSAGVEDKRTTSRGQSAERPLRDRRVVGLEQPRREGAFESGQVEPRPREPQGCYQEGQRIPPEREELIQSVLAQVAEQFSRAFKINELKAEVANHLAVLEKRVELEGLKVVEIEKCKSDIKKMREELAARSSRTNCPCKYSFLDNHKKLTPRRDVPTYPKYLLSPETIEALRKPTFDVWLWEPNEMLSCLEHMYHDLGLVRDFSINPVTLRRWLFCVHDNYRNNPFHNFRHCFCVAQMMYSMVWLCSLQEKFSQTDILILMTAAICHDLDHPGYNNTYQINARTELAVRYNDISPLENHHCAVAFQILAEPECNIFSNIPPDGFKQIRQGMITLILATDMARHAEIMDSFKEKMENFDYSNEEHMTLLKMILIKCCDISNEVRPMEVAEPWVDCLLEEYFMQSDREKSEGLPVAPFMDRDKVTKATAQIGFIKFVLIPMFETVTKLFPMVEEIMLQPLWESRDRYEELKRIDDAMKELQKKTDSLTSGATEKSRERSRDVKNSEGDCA

Row | Ratio IC50 (Homo sapiens [2]) | Ratio IC50 (Homo sapiens [3]) | Ratio IC50 (Homo sapiens [4]) | Ratio IC50 (Homo sapiens [5]) | Ratio IC50 (Homo sapiens [6]) | Ratio IC50 (Homo sapiens [7]) | Ratio IC50 (Homo sapiens [8]) | SMILES | pIC50 [1] | also measured
1 |  |  |  |  |  |  |  | CCc1ccnc2c(N3CCC(C)(C)CC3)c(C#N)c(=O)[nH]c12 | 6.21 | 
2 |  |  |  |  |  |  |  | Cc1ccc(-c2c(C#N)c(=O)[nH]c3cccnc23)cc1 | 6.14 | 
3 | > 100 | > 100 | > 100 | > 100 | > 100 | > 100 | > 100 | CCCC1CNCc2c1[nH]c(=O)c(C#N)c2N1CCC(C)(C)CC1.Cl (configuration not stated) |  | CL [9]: 46.7 mL/min/kg
4 |  |  |  |  |  |  |  | CC1(C)CCN(c2c(C#N)c(=O)[nH]c3cccnc23)CC1 | 6.48 | 
5 | > 100 | > 100 | > 100 | > 100 | > 100 | > 100 | > 100 | CCCC1CNCc2c1[nH]c(=O)c(C#N)c2-c1ccc(C)cc1.Cl (configuration not stated) |  | Ratio IC50 (Homo sapiens [10]): > 100; CL [9]: 60 mL/min/kg; Drug metabolism [11]: Metabolite_Detected; Drug metabolism [12]: Metabolite_Detected
6 | 69 | 69 | 69 | 69 | 69 | 69 | 69 | CCCC1CCCc2c1[nH]c(=O)c(C#N)c2-c1ccc(C)cc1 (configuration not stated) |  | Ratio IC50 (Homo sapiens [10]): 69
7 |  |  |  |  |  |  |  | Cc1ccc(-c2c3c([nH]c(=O)c2C#N)CCCC3)cc1 |  | Ratio IC50 [13]: 17
8 |  |  |  |  |  |  |  | CCCC1CNCc2c1[nH]c(=O)c(C#N)c2N1CCC2(CC2)C(F)(F)C1 (racemic) | 7.00 | Ratio IC50 [14]: 9
9 |  |  |  |  |  |  |  | Cc1ccc(-c2c3c([nH]c(=O)c2C#N)C(C)CCC3)cc1 (racemic) | 6.51 | Ratio IC50 [14]: 3; solubility [15]: 9 µg/mL (≈ 32.3 µM)
10 |  |  |  |  |  |  |  | CCCC1CCCc2c(-c3ccc(C)cc3)nc(=O)[nH]c21 (racemic) | 4.87 | 
